# Data published in patent US20100298141A1, “SUBSTITUTED PYRIDINE N-OXIDE HERBICIDES” (E. I. DU PONT DE NEMOURS AND COMPANY, priority 2007, published 2010).
# Key:
# barnyardgrass [1] = test: Test A pre-/postemergence greenhouse test; assay type: in vivo, Echinochloa crus-galli; conditions: for Plant response rating, Barnyardgrass: 0 to 100 scale where 0 is no effect and 100 is complete control; for Barnyardgrass plant response rating: 0 to 100 scale
# Procedure, shortened: (§1)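 Herbicidal effect is a visual injury score given about ten days post-treatment by comparison with untreated controls. Preemergence plots received a directed spray onto sown loam–sand soil; postemergence plants, at the one- to two-leaf stage and 2–10 cm tall, were sprayed at the same time.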
# common ragweed = test: Test C pre-/postemergence test; assay type: in vivo, Ambrosia elation; conditions: for Plant response rating, Ragweed: 31 g ai/ha, scale 0 to 100 (0 no effect, 100 complete control)
# Procedure, shortened: (§2)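 Seeds were planted and treated preemergence with test chemical in a non-phytotoxic solvent mixture containing surfactant. Postemergence applications of the same formulation went onto plants 2 to 18 cm tall (1- to 4-leaf stage). A dash marks no test result.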
# green foxtail = test: Test C pre-/postemergence test; assay type: in vivo, Setaria viridis; conditions: for Plant response rating, Foxtail, Green: 31 g ai/ha, scale 0 to 100 (0 no effect, 100 complete control)
# Procedure, shortened: as §2
# crabgrass = test: Test A pre-/postemergence greenhouse test; assay type: in vivo, Digitaria sanguinalis; conditions: for Plant response rating, Crabgrass, Large: 0 to 100 scale where 0 is no effect and 100 is complete control; for Crabgrass, Large plant response rating: 0 to 100 scale
# Procedure, shortened: as §1
# pigweed = test: Test C pre-/postemergence test; assay type: in vivo, Amaranthus retroflexus; conditions: for Plant response rating, Pigweed: 31 g ai/ha, scale 0 to 100 (0 no effect, 100 complete control)
# Procedure, shortened: as §2
# catchweed bedstraw = test: Test C pre-/postemergence test; assay type: in vivo, Galium aparine; conditions: for Plant response rating, Galium: 31 g ai/ha, scale 0 to 100 (0 no effect, 100 complete control)
# Procedure, shortened: as §2
# downy brome = test: Test C pre-/postemergence test; assay type: in vivo, Bromus tectorum
# Procedure, shortened: as §2
# blackgrass = test: Test C pre-/postemergence test; assay type: in vivo, Alopecurus myosuroides; conditions: for Plant response rating, Blackgrass: 31 g ai/ha, scale 0 to 100 (0 no effect, 100 complete control)
# Procedure, shortened: as §2
# barnyardgrass [2] = test: Test C flooded paddy test; assay type: in vivo, Echinochloa crus-galli; conditions: Flood
# Procedure, shortened: (§3)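 In-water treatment: compound dosed into 3 cm flood over soil, water level unchanged throughout. Controls run alongside; visual assessment at day 13–15.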
# Surinam grass = test: Test C pre-/postemergence test; assay type: in vivo, Brachiaria decumbens; conditions: for Plant response rating, Surinam Grass: 31 g ai/ha, scale 0 to 100 (0 no effect, 100 complete control)
# Procedure, shortened: as §2
# soybean = test: Test C pre-/postemergence test; assay type: in vivo, Glycine max; conditions: for Plant response rating, Soybean: 31 g ai/ha, scale 0 to 100 (0 no effect, 100 complete control)
# Procedure, shortened: as §2
# duck salad = test: Test C flooded paddy test; assay type: in vivo, Heteranthera limosa; conditions: Flood
# Procedure, shortened: as §3
# velvetleaf [3] = test: Test A pre-/postemergence greenhouse test; assay type: in vivo, Abutilon theophrasti; conditions: for Plant response rating, Velvetleaf: 0 to 100 scale where 0 is no effect and 100 is complete control; for Velvetleaf plant response rating: 0 to 100 scale
# Procedure, shortened: as §1
# woolly cupgrass = test: Test C pre-/postemergence test; assay type: in vivo, Eriochloa villosa; conditions: for Plant response rating, Cupgrass, Woolly: 31 g ai/ha, scale 0 to 100 (0 no effect, 100 complete control)
# Procedure, shortened: as §2
# lambsquarters = test: Test C pre-/postemergence test; assay type: in vivo, Chenopodium album; conditions: for Plant response rating, Lambsquarters: 31 g ai/ha, scale 0 to 100 (0 no effect, 100 complete control)
# Procedure, shortened: as §2
# giant foxtail = test: Test A pre-/postemergence greenhouse test; assay type: in vivo, Setaria faberi; conditions: for Plant response rating, Foxtail, Giant: 0 to 100 scale where 0 is no effect and 100 is complete control; for Foxtail, Giant plant response rating: 0 to 100 scale
# Procedure, shortened: as §1
# velvetleaf [4] = test: Test C pre-/postemergence test; assay type: in vivo, Abutilon theophrasti; conditions: for Plant response rating, Velvetleaf: 31 g ai/ha, scale 0 to 100 (0 no effect, 100 complete control)
# Procedure, shortened: as §2
# [5] = Postemergence, 500 g ai/ha, 0 is no effect, 100 is complete control
# [6] = Preemergence, 125 g ai/ha, 0 no effect, 100 complete control
# [7] = 62 g ai/ha, Preemergence, scale 0 to 100
# [8] = 125 g ai/ha, preemergence, scale 0 (no effect) to 100 (complete control)
# [9] = preemergence, 250 g ai/ha, scale 0 (no effect) to 100 (complete control)
# [10] = 62 g ai/ha, scale 0 to 100 (0 no effect, 100 complete control)
# [11] = 250 g ai/ha, scale 0 to 100, 0 no effect, 100 complete control, 13 to 15 days
# [12] = 31 g ai/ha, scale 0 to 100 (0 no effect, 100 complete control)
# [13] = 125 g ai/ha, scale 0 to 100, 0 no effect, 100 complete control, 13 to 15 days
compound,measurement,setting,value
CC(Oc1c(C[S+]([O-])c2cccc[n+]2[O-])c(C(F)(F)F)nn1C)C(F)(F)F (stereo not drawn) [Compound 77],"Plant response rating, Barnyardgrass","barnyardgrass [1]; Postemergence, 125 g ai/ha",80
same,Barnyardgrass plant response rating,barnyardgrass [1]; [5],90
same,Barnyardgrass plant response rating,barnyardgrass [1]; [6],90
same,"Plant response rating, Barnyardgrass","barnyardgrass [1]; Preemergence, 500 g ai/ha",100
same,Ragweed plant response rating,common ragweed; [7],100
same,Ragweed plant response rating,common ragweed; [8],100
same,"Plant response rating, Ragweed",common ragweed; Preemergence,100
same,Ragweed plant response rating,common ragweed; [9],100
same,"Foxtail, Green plant response rating",green foxtail; [7],85
same,"Foxtail, Green plant response rating",green foxtail; [8],100
same,"Plant response rating, Foxtail, Green",green foxtail; Preemergence,85
same,"Foxtail, Green plant response rating",green foxtail; [9],100
same,"Plant response rating, Crabgrass, Large","crabgrass; Postemergence, 125 g ai/ha",60
same,"Crabgrass, Large plant response rating",crabgrass; [5],90
same,"Crabgrass, Large plant response rating",crabgrass; [6],80
same,"Plant response rating, Crabgrass, Large","crabgrass; Preemergence, 500 g ai/ha",100
same,Pigweed plant response rating,pigweed; [7],100
same,Pigweed plant response rating,pigweed; [8],100
same,"Plant response rating, Pigweed",pigweed; Preemergence,100
same,Pigweed plant response rating,pigweed; [9],100
same,Galium plant response rating,catchweed bedstraw; [7],100
same,Galium plant response rating,catchweed bedstraw; [8],100
same,"Plant response rating, Galium",catchweed bedstraw; Preemergence,100
same,Galium plant response rating,catchweed bedstraw; [9],100
same,"Bromegrass, Downy plant response rating",downy brome; [7],45
same,"Bromegrass, Downy plant response rating",downy brome; [8],70
same,"Plant response rating, Bromegrass, Downy","downy brome; Preemergence, 31 g ai/ha, scale 0 to 100 (0 no effect, 100 complete control)",0
same,"Bromegrass, Downy plant response rating",downy brome; [9],100
same,Blackgrass plant response rating,blackgrass; [7],100
same,Blackgrass plant response rating,blackgrass; [8],100
same,"Plant response rating, Blackgrass",blackgrass; Preemergence,100
same,Blackgrass plant response rating,blackgrass; [9],100
same,"Plant response rating, Barnyardgrass",barnyardgrass [2]; [10],0
same,"Plant response rating, Barnyardgrass",barnyardgrass [2]; [11],75
same,Surinam Grass plant response rating,Surinam grass; [7],100
same,Surinam Grass plant response rating,Surinam grass; [8],100
same,"Plant response rating, Surinam Grass",Surinam grass; Preemergence,85
same,Surinam Grass plant response rating,Surinam grass; [9],100
same,Soybean plant response rating,soybean; [7],45
same,Soybean plant response rating,soybean; [8],70
same,"Plant response rating, Soybean",soybean; Preemergence,40
same,Soybean plant response rating,soybean; [9],100
same,"Plant response rating, Ducksalad",duck salad; [10],75
same,"Plant response rating, Ducksalad",duck salad; [11],100
same,"Plant response rating, Velvetleaf","velvetleaf [3]; Postemergence, 125 g ai/ha",50
same,Velvetleaf plant response rating,velvetleaf [3]; [5],90
same,Velvetleaf plant response rating,velvetleaf [3]; [6],50
same,"Plant response rating, Velvetleaf","velvetleaf [3]; Preemergence, 500 g ai/ha",100
same,"Cupgrass, Woolly plant response rating",woolly cupgrass; [7],98
same,"Cupgrass, Woolly plant response rating",woolly cupgrass; [8],100
same,"Plant response rating, Cupgrass, Woolly",woolly cupgrass; Preemergence,80
same,"Cupgrass, Woolly plant response rating",woolly cupgrass; [9],100
same,Lambsquarters plant response rating,lambsquarters; [7],100
same,Lambsquarters plant response rating,lambsquarters; [8],100
same,"Plant response rating, Lambsquarters",lambsquarters; Preemergence,100
same,Lambsquarters plant response rating,lambsquarters; [9],100
same,"Plant response rating, Foxtail, Giant","giant foxtail; Postemergence, 125 g ai/ha",80
same,"Foxtail, Giant plant response rating",giant foxtail; [5],90
same,"Foxtail, Giant plant response rating",giant foxtail; [6],90
same,"Plant response rating, Foxtail, Giant","giant foxtail; Preemergence, 500 g ai/ha",100
same,Velvetleaf plant response rating,velvetleaf [4]; [7],100
same,Velvetleaf plant response rating,velvetleaf [4]; [8],100
same,"Plant response rating, Velvetleaf",velvetleaf [4]; Preemergence,60
same,Velvetleaf plant response rating,velvetleaf [4]; [9],100
Cn1nc(C(F)(F)F)c(C[S+]([O-])c2ccc(Cl)c[n+]2[O-])c1OCC(F)F (stereo not drawn) [Compound 85],"Plant response rating, Barnyardgrass","barnyardgrass [1]; Postemergence, 125 g ai/ha",70
same,Barnyardgrass plant response rating,barnyardgrass [1]; [5],90
same,Barnyardgrass plant response rating,barnyardgrass [1]; [6],70
same,"Plant response rating, Barnyardgrass","barnyardgrass [1]; Preemergence, 500 g ai/ha",100
same,Ragweed plant response rating,common ragweed; [7],100
same,Ragweed plant response rating,common ragweed; [8],100
same,"Plant response rating, Ragweed",common ragweed; Preemergence,100
same,Ragweed plant response rating,common ragweed; [9],100
same,"Foxtail, Green plant response rating",green foxtail; [7],100
same,"Foxtail, Green plant response rating",green foxtail; [8],100
same,"Plant response rating, Foxtail, Green",green foxtail; Preemergence,100
same,"Foxtail, Green plant response rating",green foxtail; [9],100
same,"Plant response rating, Crabgrass, Large","crabgrass; Postemergence, 125 g ai/ha",70
same,"Crabgrass, Large plant response rating",crabgrass; [5],90
same,"Crabgrass, Large plant response rating",crabgrass; [6],80
same,"Plant response rating, Crabgrass, Large","crabgrass; Preemergence, 500 g ai/ha",100
same,Pigweed plant response rating,pigweed; [7],100
same,Pigweed plant response rating,pigweed; [8],100
same,"Plant response rating, Pigweed",pigweed; Preemergence,100
same,Pigweed plant response rating,pigweed; [9],100
same,Galium plant response rating,catchweed bedstraw; [7],100
same,Galium plant response rating,catchweed bedstraw; [8],100
same,"Plant response rating, Galium",catchweed bedstraw; Preemergence,98
same,Galium plant response rating,catchweed bedstraw; [9],100
same,"Bromegrass, Downy plant response rating",downy brome; [8],70
same,"Bromegrass, Downy plant response rating",downy brome; [9],100
same,Blackgrass plant response rating,blackgrass; [7],100
same,Blackgrass plant response rating,blackgrass; [8],100
same,"Plant response rating, Blackgrass",blackgrass; Preemergence,100
same,Blackgrass plant response rating,blackgrass; [9],100
same,"Plant response rating, Barnyardgrass",barnyardgrass [2]; [12],0
same,"Plant response rating, Barnyardgrass",barnyardgrass [2]; [10],0
same,"Plant response rating, Barnyardgrass",barnyardgrass [2]; [13],25
same,"Plant response rating, Barnyardgrass",barnyardgrass [2]; [11],70
same,Surinam Grass plant response rating,Surinam grass; [7],95
same,Surinam Grass plant response rating,Surinam grass; [8],100
same,"Plant response rating, Surinam Grass",Surinam grass; Preemergence,85
same,Surinam Grass plant response rating,Surinam grass; [9],100
same,Soybean plant response rating,soybean; [7],100
same,"Plant response rating, Soybean",soybean; Preemergence,100
same,Soybean plant response rating,soybean; [9],100
same,"Plant response rating, Ducksalad",duck salad; [12],35
same,"Plant response rating, Ducksalad",duck salad; [10],45
same,"Plant response rating, Ducksalad",duck salad; [13],75
same,"Plant response rating, Ducksalad",duck salad; [11],80
same,"Plant response rating, Velvetleaf","velvetleaf [3]; Postemergence, 125 g ai/ha",50
same,Velvetleaf plant response rating,velvetleaf [3]; [5],90
same,Velvetleaf plant response rating,velvetleaf [3]; [6],50
same,Velvetleaf plant response rating,"velvetleaf [3]; Preemergence, 500 g ai/ha, 0 no effect, 100 complete control",100
same,"Cupgrass, Woolly plant response rating",woolly cupgrass; [7],95
same,"Cupgrass, Woolly plant response rating",woolly cupgrass; [8],95
same,"Plant response rating, Cupgrass, Woolly",woolly cupgrass; Preemergence,80
same,"Cupgrass, Woolly plant response rating",woolly cupgrass; [9],100
same,Lambsquarters plant response rating,lambsquarters; [7],100
same,Lambsquarters plant response rating,lambsquarters; [8],100
same,"Plant response rating, Lambsquarters",lambsquarters; Preemergence,100
same,Lambsquarters plant response rating,lambsquarters; [9],100
same,"Plant response rating, Foxtail, Giant","giant foxtail; Postemergence, 125 g ai/ha",90
same,"Foxtail, Giant plant response rating",giant foxtail; [5],90
same,"Foxtail, Giant plant response rating",giant foxtail; [6],100
same,"Plant response rating, Foxtail, Giant","giant foxtail; Preemergence, 500 g ai/ha",100
same,Velvetleaf plant response rating,velvetleaf [4]; [7],70
same,Velvetleaf plant response rating,velvetleaf [4]; [8],95
same,"Plant response rating, Velvetleaf",velvetleaf [4]; Preemergence,50
same,Velvetleaf plant response rating,velvetleaf [4]; [9],100
